From patent US5547978A, “Derivatives of pyrrolidin-2-ylcarbonylheterocyclic compounds” (priority 1994, dated 1996)

These compounds were tested against T1, prolyl endopeptidase (Sus scrofa, UniProt P23687) (assay: Prolyl endopeptidase-inhibitory activity in vitro (porcine kidney enzyme, Z-Gly-Pro-p-nitroanilide substrate)). Settings: not given.
T1 construct: porcine kidney enzyme which was prepared according to methods of Walter and Yoshimoto et al; from tissue; host or cells: porcine kidney
T1 sequence (P23687 whole entry): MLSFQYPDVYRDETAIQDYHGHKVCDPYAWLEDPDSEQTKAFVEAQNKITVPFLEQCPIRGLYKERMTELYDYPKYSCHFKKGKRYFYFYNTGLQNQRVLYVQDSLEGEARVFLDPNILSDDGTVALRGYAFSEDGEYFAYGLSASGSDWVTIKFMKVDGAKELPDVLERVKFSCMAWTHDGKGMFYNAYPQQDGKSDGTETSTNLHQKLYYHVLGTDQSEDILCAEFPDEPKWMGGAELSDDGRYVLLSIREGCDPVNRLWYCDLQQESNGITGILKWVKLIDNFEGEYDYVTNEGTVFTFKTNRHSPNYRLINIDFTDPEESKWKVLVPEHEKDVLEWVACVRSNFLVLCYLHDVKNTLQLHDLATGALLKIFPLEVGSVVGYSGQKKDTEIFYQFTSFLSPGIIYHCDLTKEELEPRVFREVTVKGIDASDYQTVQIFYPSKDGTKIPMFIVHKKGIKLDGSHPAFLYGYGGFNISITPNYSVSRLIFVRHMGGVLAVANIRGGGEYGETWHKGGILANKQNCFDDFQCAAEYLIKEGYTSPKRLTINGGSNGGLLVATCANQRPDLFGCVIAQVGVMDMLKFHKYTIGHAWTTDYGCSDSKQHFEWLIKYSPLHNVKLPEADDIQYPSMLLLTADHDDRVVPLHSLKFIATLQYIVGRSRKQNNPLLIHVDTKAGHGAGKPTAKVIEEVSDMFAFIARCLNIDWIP
Format: biochemical
Protocol: A test compound (2 mg) was dissolved in DMSO (2 ml) and diluted to appropriate concentrations with DMSO. Z-Gly-Pro-p-nitroanilide (8 mg), a substrate was dissolved in dioxane (5 ml), water (27 ml) and 0.2 M phosphate buffer (pH 7.8, 40 ml). The substrate solution ([…]) was mixed with an inhibitor solution (3 ml) and followed by addition of above mentioned porcine kidney enzyme solution ([…]). Immediately after the mixing the UV absorbance at 405 nm was detected. The mixture was incubated at 37° C. for 20 min. and the UV absorbance was checked. A standard curve of absorbance (OD) vs. p-nitroaniline concentration was used to relate the absorbance to amount of substrate hydrolyzed. […] The inhibiting activity was obtained following the equation below. The IC50 value was estimated from the inhibitor concentration vs. inhibitory activity curve.
The percent inhibitory activity (%)=(ΔODc -ΔODs)/ΔODc ×100
ΔODs : ΔOD for test sample
`O=C(c1nccs1)[C@@H]1CCCN1C(=O)[C@@H]1C[C@@H](Sc2ccccc2)CN1C(=O)CCCc1ccccc1` [Example 10, 2-[1-{1-(4-Phenylbutanoyl)-4(R)-phenylthiopyrrolidin-2(S)-ylcarbonyl}-pyrrolidin-2(S)-ylcarbonyl]thiazole] was tested, and the IC50 was 1.12 nM. `O=C(CSCc1ccccc1)C1CCCCC1C(=O)N1CCC[C@H]1C(=O)c1nccs1` (stereo partly drawn) [Example 16, 2-[1-(2-Benzylthioacetylcyclohexan-1-ylcarbonyl)pyrrolidin-2(S)-ylcarbonyl]thiazole] was tested, and the IC50 was 53.7 nM. Work on `O=C(c1cccnc1)[C@@H]1CCCN1C(=O)[C@@H]1CCCN1C(=O)CCCc1ccccc1` [Example 30, 3-[1-{1-(4-Phenylbutanoyl)pyrrolidin-2(S)-ylcarbonyl}pyrrolidin-2(S)-ylcarbonyl]pyridine] yielded an IC50 of 2620 nM. With `O=C(c1nc2ccccc2o1)[C@@H]1CCCN1C(=O)[C@@H]1CCCN1C(=O)CCCc1ccccc1` [Example 36, 2-[1-{1-(4-Phenylbutanoyl)pyrrolidin-2(S)-ylcarbonyl}pyrrolidin-2(S)-ylcarbonyl]benzoxazole] the IC50 was 4.13 nM. `O=C(c1nc2ccccc2s1)[C@@H]1CCCN1C(=O)[C@@H]1Cc2ccccc2N1C(=O)CCCc1ccccc1` [Example 19, 2-[1-{1-(4-Phenylbutanoyl)indolin-2(S)-ylcarbonyl}pyrrolidin-2(S)-ylcarbonyl]benzothiazole] gave an IC50 of 5.44 nM. Compound `O=C(c1nc[nH]n1)[C@@H]1CCCN1C(=O)[C@@H]1CCCN1C(=O)CCCc1ccccc1` [Example 34, 3-[1-{1-(4-Phenylbutanoyl)pyrrolidin-2(S)-ylcarbonyl}pyrrolidin-2(S)-ylcarbonyl]1,2,4-triazole] has an IC50 of 6.11 nM. Work on `O=C(c1nc2ccccc2s1)[C@@H]1CCCN1C(=O)[C@@H]1C[C@@H](Sc2ccccc2)CN1C(=O)OCc1ccccc1` [Example 20, 2-{1-(1-Benzyloxycarbonyl-4(R)-phenylthiopyrrolidin-2(S)-ylcarbonyl)pyrrolidin-2(S)-ylcarbonyl}benzothiazole] yielded an IC50 of 2.45 nM. Work on `O=C(c1nc2ccccc2s1)[C@@H]1CCCN1C(=O)[C@@H]1Cc2ccccc2N1C(=O)OCc1ccccc1` [Example 18, 2-{1-(1-Benzyloxycarbonylindolin-2(S)-ylcarbonyl)pyrrolidin-2(S)-ylcarbonyl}benzothiazole] yielded an IC50 of 7.33 nM. Work on `O=C(c1nc2ncccc2[nH]1)[C@@H]1CCCN1C(=O)[C@@H]1CCCN1C(=O)CCCc1ccccc1` [Example 38, 2-[1-{1-(4-Phenylbutanoyl)pyrrolidin-2(S)-ylcarbonyl}pyrrolidin-2(S)-ylcarbonyl]imidazo[4,5-b]pyridine] yielded an IC50 of 6.09 nM. In the case of `O=C(c1nccs1)[C@@H]1CCCN1C(=O)[C@@H]1Cc2ccccc2N1C(=O)OCc1ccccc1` [Example 8, 2-{1-(1-Benzyloxycarbonylindolin-2(S)-ylcarbonyl)pyrrolidin-2(S)-ylcarbonyl}thiazole], the IC50 is reported as 3.68 nM. With `O=C(c1nc2ccccc2[nH]1)[C@@H]1CCCN1C(=O)[C@@H]1CCCN1C(=O)CCCc1ccccc1` [Example 29, 2-[1-{1-(4-Phenylbutanoyl)pyrrolidin-2(S)-ylcarbonyl}pyrrolidin-2(S)-ylcarbonyl]-1H-benzimidazole] the IC50 was 3.82 nM. `O=C(c1nccs1)[C@@H]1CCCN1C(=O)[C@@H]1CC2CCCCC2N1C(=O)CCCc1ccccc1` (stereo partly drawn) [Example 7, 2-[1-{1-(4-Phenylbutanoyl)octahydroindol-2(S)-ylcarbonyl}pyrrolidin-2(S)-ylcarbonyl]thiazole] showed an IC50 of 2.4 nM.

Same assay, conditions: porcine kidney enzyme, pH 7.8, 37° C., 20 min
In the case of “2-[1-{1-(4-Phenylbutanoyl)pyrrolidin-2(S)-ylcarbonyl}pyrrolidin-2(S)-ylcarbonyl]oxazole [Example 23]”, the IC50 is reported as 3.20 ng/mL. “2-[1-{1-(4-Phenylbutanoyl)indolin-2(S)-ylcarbonyl}pyrrolidin-2(S)-ylcarbonyl]oxazole [Example 24]” showed an IC50 of 5.50 ng/mL. With `O=C(CSCc1ccccc1)C1CCCC1C(=O)N1CCC[C@H]1C(=O)c1nccs1` (stereo partly drawn) [Example 15, 2-[1-{2-Benzylthioacetylcyclopentan-1-ylcarbonyl)pyrrolidin-2(S)-ylcarbonyl}thiazole] the IC50 was 54.2 nM.
